Values of other authors in US20230040901A1, “PHARMACEUTICAL COMPOSITION FOR INHIBITING POSTOPERATIVE ADHESIONS” (PlantTec Medical GmbH, priority 2018, published 2023).

Key:
[1] = test system: postoperative adhesions; settings: clinical application in 400 abdominal surgeries
[2] = test system: postoperative adhesions; settings: 2% to 4% citrate in water or saline solution, 60 experiments on rabbits

Q: With `O=C(O)CC(O)(CC(=O)O)C(=O)O` [citrate] as the compound, how does the Development of adhesions [1] read?
A: Its Development of adhesions is “clear improvement”.

Q: And the Adhesions [2]?
A: Its Adhesions is “fewer adhesions”.
